In US20230381348A1, “BIFUNCTIONAL MACROCYCLIC CHELATE, CONJUGATE, METAL COMPLEX AND USE THEREOF” (Jyams Pet Research & Development Limited, priority 2021, published 2023):

How the values were obtained:
[1] = format: physicochemical; settings: 48 h
Description: (§1) HPLC: standard UV peak Rt=10.548 min, radioactive peak Rt=10.809 min, corresponding to the peak position of the standard.

[2] = In vitro stability of labeled product in mouse serum (radiochemical purity after 48 h); format: in vitro ADME
Description: as §1

[3] = test system: LNCap tumor-bearing mice; experiment: PET imaging after tail vein injection; format: in vivo; settings: single intravenous administration, 200 μCi
Description: (§2) Method: LNCap tumor-bearing mice were injected with the complex ^89Zr-Dar-PSMA-617 (200 μCi) prepared in Example 9 through tail vein, while dynamic scan was performed for 60 min during the administration, and static whole body scan was performed for 10 min at different time points during 2-216 h after the administration. Refer to FIG. 1 for the mouse PET scanning image.
as §2, with “complex” for “complex ^89Zr-Dar-PSMA-617”, “Example 7” for “Example 9”, “vein,” for “vein, while”, “and the” for “and”, “points of 2-192” for “points during 2-216”, “FIG. 2” for “FIG. 1”
Method: LNCap tumor-bearing mice were injected with the complex ^68Ga-Dar-PSMA-617 (200 μCi) prepared in Example 10 through tail vein, dynamic scan was performed for 60 min during the administration, and the static whole body scan was performed for 10 min at different time points of 2-6 h after the administration. Refer to FIG. 3 for the mouse PET scanning image.

[4] = male, SD, rat, in vivo, iv
Method: About 0.1-0.2 mL of blood was collected from jugular vein plexus of the experimental animals at 5 min, 15 min, 30 min, 1 h, 2 h, 3 h, 4 h, 5 h, 6 h, 8 h, 12 h, 24 h, 48 h, 72 h, 96 h, 120 h, 144 h, and 168 h after the administration, and the rats were weighed for subsequent assay. Blood was collected from 6 males in each group at each time point, and 12 animals were cross-sampled. Each sample was subjected to gamma counting for 30 s.

[5] = test system: LNCap cells; experiment: Experiment A cell uptake experiment (cell binding rate); format: cell-based; settings: for uptake rate of the blocking group: unlabeled ligand 200 times that of labeled subject; for uptake rate: 37° C.
Description: (§3) LNCap cells were cultured to logarithmic growth phase. After digestion with pancreatin, the resultant mixture was adjusted with complete medium into a cell suspension with a cell density of […]. Cells were inoculated in 24-well plate with 0.5-1.0 mL cells per well and the number of 1×10^5 cells per well (inoculated 2 d in advance for cell experiment). ^177Lu-Dar, ^177Lu-Dar-PSMA-617, ^177Lu-DOTA, and ^177Lu-DOTA-PSMA-617 were respectively diluted with a basic medium (with 1% HSA added) to 10 μCi/mL for subsequent use.
Unlabeled ligands Dar, DOTA, Dar-PSMA-617, and DOTA-PSMA-617 were respectively formulated to be 10 μg/mL and 25 μg/mL with basic medium (with 1% HSA added) for subsequent use.
(§4) Cells were incubated in 37° C. incubator for 1 h, 4 h, and 24 h.
Uptake experiment: blocking groups were set in cell uptake experiment, and unlabeled ligands were added in an amount of 200 times that of labeled subjects. After incubation was completed, the cell suspension was collected, followed by centrifugation at 1500 rpm for 5 min, cell pellet was collected, the supernatant was removed, the cell pellet was washed once with 0.5 mL of pre-cooled PBS, and the resultant cell pellet was collected.
(§5) Cell pellet was collected for gamma counting. Both the blank and standard tubes were assayed simultaneously in each test.
Cell binding rate=CPM of the cell lysate/CPM of the standard tube×100%

[6] = test system: LNCap cells; experiment: Experiment A internalization experiment; format: cell-based
Description: as §3, §4
Internalization experiment: after incubation was completed, the cell suspension was collected, 0.5 mL of pre-cooled pickling solution was added, after incubation for 1 min at room temperature, the pickling solution was removed; and the resultant mixture was washed once with 0.5 mL of PBS, and cell pellet was collected.
as §5
Cell internalization rate=CPM of the cell lysate after acid pickling/CPM of the uptake experiment cell lysate×100%

[7] = test system: LNCap cells; experiment: Experiment A efflux experiment; format: cell-based; settings: then 24 h in complete medium
Description: as §3, §4
Efflux experiment: after the incubation was completed, the cell suspension was collected, washed once with 0.5 mL of complete medium, added with 0.5 mL of complete medium, after resuspension, the resultant mixture was placed into original wells, incubated at 37° C. for 24 h, and then the supernatant was collected, and washed once with 0.5 mL of PBS. Cell pellet was collected after centrifugation of the supernatant and PBS washing solution; and 0.5 mL of 1 M lysis solution was utilized to digest and lyse cells in the original wells, and combined with the cell pellet.
as §5
Cell efflux rate=CPM of the efflux experiment cell lysate/CPM of the uptake experiment cell lysate×100%

[8] = test system: LNCap tumor-bearing mice animal models; experiment: ^177Lu-Dar-PSMA-617 treatment study (tumor size, body weight, clinical observation); format: in vivo
Description: LNCap tumor-bearing mice animal models were used.
Experimental Groups: • (A)^177Lu-Dar-PSMA-617 low dosage 0.25 mCi (n=7); • (B)^177Lu-Dar-PSMA-617 medium dosage 0.5 mCi (n=10); • (C)^177Lu-Dar-PSMA-617 high dosage 1 mCi (n=10).
Positive Control Groups: • (D)^177Lu-DOTA-PSMA-617 0.5 mCi (n=7); • (E)^177Lu-DOTA-PSMA-617 1 mCi (n=10).
Negative Control Groups: • (F) ^177LuCl3 1 mCi (n=10); • (G) normal saline (n=10)
Method: the day of administration was recorded as D-0, and body weight and tumor size were measured every day or every other day. After administration of ^177Lu-Dar-PSMA-617 (Group C), SPECT scan was performed at 4 h, 24 h, 72 h, 120 h, and 240 h after the administration; the control groups ^177Lu-DOTA-PSMA-617 (Group E) and ^177LuCl3 (Group F) were respectively subjected to SPECT scan at 2 h, 24 h, 72 h, and 120 h (240 h) (refer to FIG. 7, group C, group E, and group F in sequence from top to bottom). The animals were kept stationary, and CT scan was completed before/after the SPECT scan. Prior to the scan, the animals were subjected to respiratory anesthesia with isoflurane through an anesthesia machine, and the animals having undergone anesthesia induction were placed on a SPECT/CT bed. During the scan, the animals continuously inhaled isoflurane to maintain anesthesia effect. Each bed was statically scanned for 10-30 min and scan time was recorded.

[9] = test system: MC38/MC38-hPDL1 bilateral tumor-bearing mice; experiment: ^89Zr-Dar-KN035 PET imaging study; format: in vivo
Description: Method: MC38/MC38-hPDL1 bilateral tumor-bearing mice were injected with the ^89Zr-Dar-KN035 (100 μCi) through tail vein, wherein MC38 was a tumor low-expressing PDL1, and MC38-hPDL1 was a tumor high-expressing PDL1. Dynamic scan was performed for 60 min during the administration, and static whole body scan was performed for 10 min at different time points of 1-168 h after the administration. A mouse PET scanning image is shown in FIG. 10, with MC38 on the left and MC38-hPDL1 on the right.

Molecule: Cc1cc2c(O)c(c1)CN(CC(=O)O)Cc1cccc(n1)CN(CC(=O)NC[C@H]1CC[C@H](C(=O)N[C@@H](Cc3ccc4ccccc4c3)C(=O)NCCCC[C@H](NC(=O)N[C@@H](CCC(=O)O)C(=O)O)C(=O)O)CC1)Cc1cc(C)cc(c1O)CN(CC(=O)O)Cc1cccc(n1)CN(CC(=O)O)C2 [^89Zr-Dar-PSMA-617, metal not drawn]
- radiochemical purity after incubation in normal saline ([1]; normal saline, 37° C. water bath incubator): 98%
- radiochemical purity after being placed at room temperature ([1]; room temperature): 98%
- radiochemical purity after incubation in mouse serum [2]: 96%
- main distribution of radioactive substances [3]: mainly distributed in the bladder and kidneys
- half-life period in blood [4]: 4.57 h

Molecule: O=C([O-])CN1CCN(CC(=O)[O-])CCN(CC(=O)[O-])CCN(CC(=O)[O-])CC1.[177Lu+3].[H+] [^177Lu-DOTA]
- uptake rate of the blocking group ([5]; 1 h): 0.26%
- uptake rate ([5]; 1 h incubation): 0.22%
- uptake rate of the blocking group ([5]; 4 h): 0.24%
- uptake rate ([5]; 4 h incubation): 0.20%
- uptake rate of the blocking group ([5]; 24 h): 1.97%
- uptake rate ([5]; 24 h incubation): 2.01%
- internalization rate ([6]; 1 h incubation): 35.46%
- internalization rate ([6]; 4 h incubation): 165.46%
- internalization rate ([6]; 24 h incubation): 8.33%
- efflux rate ([7]; 1 h incubation): 76.83%
- efflux rate ([7]; 4 h incubation): 63.22%
- efflux rate ([7]; 24 h incubation): 9.38%

Molecule: [177Lu+3].[Cl-].[Cl-].[Cl-] [^177LuCl3]
- body weight change ([8]; 1 mCi (Group C, Group F)): decrease rapidly
- adverse effects (conclusion) ([8]; 1 mCi (Group F)): severe adverse effects
- gross anatomy of dead mice ([8]; 1 mCi (Group F)): skeletal darkening and blood stasis of bone marrow
- animal clinical observation ([8]; 1 mCi (Group F), starting from D-5, all animals at the later stage): weight loss and arched back

B1: ^89Zr-Dar-KN035 (conjugate, chains of the INN, looked up)
VH: QVQLVESGGGLVQPGGSLRLSCAASGKMSSRRCMAWFRQAPGKERERVAKLLTTSGSTYLADSVKGRFTISRDNSKNTVYLQMNSLRAEDTAVYYCAADSFEDPTCTLVTSSGAFQYWGQGTLVTVSS
modifications: 89Zr with Dar chelator
- uptake in tumor high-expressing PDL1 (MC38-hPDL1) ([9]; 100 μCi tail vein, PET 1-168 h): significantly taken up
- uptake in tumor low-expressing PDL1 (MC38) ([9]; 100 μCi tail vein, PET 1-168 h): almost not taken up
- tumor selectivity ([9]; MC38-hPDL1 versus MC38): good tumor selectivity
